# Experimental data from PubChem BioAssay (NCI).
# “And” between values parts separate entries of the source, which are not always exact repeats. Equal entries are not always repeated.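 48-hour exposure; five concentrations; linearly interpolated endpoints. Abbreviation: GI50, concentration required for 50% inhibition of growth. TGI denotes the concentration required for complete inhibition of growth.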
# Tested on: EKVX NSCLC
# Assay: inhibition of tumour cell growth, NCI panel, 48 h
Compound,GI50 [µM],TGI
CCCC(=O)Nc1cn(COC)c(C(=O)N2C[C@@H]3C[C@]34C2=CC(=O)c2[nH]cc(C)c24)n1,14.8,> 5 µM and 38.2 µM
CNCCOC(=O)/C=C1\CC[C@H]2[C@@H]([C@@H](O)C(=O)[C@@H]3[C@]2(C)CC[C@H](O)[C@]3(C)C(=O)OC)[C@H]1C,0.229,0.539 µM
Cc1nnc(Nc2ccc(NC(=O)Nc3ccc(Cl)cc3)cc2)c2ccccc12,3.47,17.9 µM
CC(=O)ON1CCCC(P(=O)(OCCSC(=O)C(C)(C)C)OCCSC(=O)C(C)(C)C)C1=O (centres undefined),2.1,49.6 µM
COC(=O)[C@]12CC[C@@H](C)[C@H](C)[C@@H]1C1=CC[C@@H]3[C@@]4(C)C[C@@H](O)[C@H](O)[C@@](C)(CO)C4=CC[C@@]3(C)[C@]1(C)CC2,15.9,32.5 µM
COc1ccc(C(=O)Nc2ccc(O)c(=O)cc2)cc1,–,59 µM
Cc1nc(N)sc1N=Nc1ccccc1Br,–,76.3 µM
NS(=O)(=O)c1ccc(N=Nc2c(O)c(C(=O)O)cc3ccccc23)cc1,–,> 100 µM
Cc1c(N(C)C)ccc2c(=O)c3cccc(CC(=O)O)c3oc12,–,> 100 µM
CC(NCCC(c1ccccc1)c1ccccc1)c1ccccc1 (centres undefined),3.63,16.5 µM
C/C(N=NC(=S)N1CC2CCC(CC2)C1)=C1\C=CC=CN1O,–,> 65.9 µM
O=C(Nc1ccc(Br)cc1F)c1cc(Cl)ccc1O,1.12,> 26.2 µM
NC(N)=N/N=C/c1c(Cl)cccc1Cl,15.9,47.5 µM
S=c1[nH]c(=S)c2cc3ccccc3nc2[nH]1,31,> 100 µM

# Tested on: HOP-62 NSCLC
# Assay: inhibition of tumour cell growth, NCI panel, 48 h
Compound,GI50 [µM],TGI
Clc1cc2c(c(CSc3nc4ccccc4n4cccc34)c1)OCOC2,10.3,31.8 µM
CN1CCN(c2ccc(Nc3cc(-c4cccc(-n5ccc6cc(C7CC7)cc(F)c6c5=O)c4CO)cn(C)c3=O)nc2)CC1,3.97,20.7 µM
COc1ccc2nc3ccccc3c(NCc3ccc(F)cc3)c2c1,2.34,10.9 µM
CCn1c(O)c(/C=N/NC(=O)C(C)c2ccc(CC(C)C)cc2)sc1=S (centres undefined),0.549,> 50.7 µM
C[C@@H]1C[C@@H]([C@@H](CC2CC(=O)NC(=O)C2)OC(=O)CC(=O)c2ccccc2)C(=O)[C@@H](C)C1,0.99,> 100 µM
CCOC(=O)Nc1cc2c(c(N)n1)N=C(c1ccccc1)CO2,0.45,24.3 µM
CC1CC2CCCC(O)=C2C(=O)O1 (centres undefined),–,> 100 µM
CC(C)(/C=C(\C#N)C(=O)N1CCC[C@@H](n2nc(-c3ccc(Oc4ccccc4)cc3F)c3c(N)ncnc32)C1)N1CCN(C2COC2)CC1,10.1,25.7 µM
O=c1oc2ccc(-c3ccc(F)cc3F)cc2c(=O)n1-c1cccc(C(F)(F)F)c1,1.73,4.57 µM
COC(=O)c1ccc2c(c1)C(=O)c1c-2n(CCCN=[N+]=[N-])c(=O)c2cc(OC)c(OC)cc12,> 100,> 100 µM
O=C(Cc1ccc(F)c(Cl)c1)Nc1cc(C2(C(F)(F)F)CC2)nn1CC1CCCCC1,3.96,> 15 µM
NNC(=O)CNc1cccc(Br)c1,–,> 100 µM
NC(N)=NCCCC(=O)O,–,> 100 µM
CCCC(=O)Nc1cn(COC)c(C(=O)N2C[C@@H]3C[C@]34C2=CC(=O)c2[nH]cc(C)c24)n1,3.91,50 µM and 15.2 µM
CNCCOC(=O)/C=C1\CC[C@H]2[C@@H]([C@@H](O)C(=O)[C@@H]3[C@]2(C)CC[C@H](O)[C@]3(C)C(=O)OC)[C@H]1C,0.241,0.595 µM
Cc1nnc(Nc2ccc(NC(=O)Nc3ccc(Cl)cc3)cc2)c2ccccc12,1.81,3.7 µM
CC(=O)ON1CCCC(P(=O)(OCCSC(=O)C(C)(C)C)OCCSC(=O)C(C)(C)C)C1=O (centres undefined),3.21,> 100 µM
COC(=O)[C@]12CC[C@@H](C)[C@H](C)[C@@H]1C1=CC[C@@H]3[C@@]4(C)C[C@@H](O)[C@H](O)[C@@](C)(CO)C4=CC[C@@]3(C)[C@]1(C)CC2,21.3,39.2 µM
COc1ccc(C(=O)Nc2ccc(O)c(=O)cc2)cc1,–,> 100 µM
Cc1nc(N)sc1N=Nc1ccccc1Br,–,78.4 µM
NS(=O)(=O)c1ccc(N=Nc2c(O)c(C(=O)O)cc3ccccc23)cc1,–,> 100 µM
Cc1c(N(C)C)ccc2c(=O)c3cccc(CC(=O)O)c3oc12,–,> 100 µM
CC(NCCC(c1ccccc1)c1ccccc1)c1ccccc1 (centres undefined),1.36,3.31 µM
C/C(N=NC(=S)N1CC2CCC(CC2)C1)=C1\C=CC=CN1O,–,> 100 µM
O=C(Nc1ccc(Br)cc1F)c1cc(Cl)ccc1O,1.64,5.22 µM
NC(N)=N/N=C/c1c(Cl)cccc1Cl,30.9,> 100 µM
S=c1[nH]c(=S)c2cc3ccccc3nc2[nH]1,> 100,> 100 µM

# Tested on: IGROV1 ovarian
# Assay: inhibition of tumour cell growth, NCI panel, 48 h
Compound,GI50 [µM],TGI
Clc1cc2c(c(CSc3nc4ccccc4n4cccc34)c1)OCOC2,4.26,> 100 µM
CN1CCN(c2ccc(Nc3cc(-c4cccc(-n5ccc6cc(C7CC7)cc(F)c6c5=O)c4CO)cn(C)c3=O)nc2)CC1,8.65,25.7 µM
COc1ccc2nc3ccccc3c(NCc3ccc(F)cc3)c2c1,1.8,6.65 µM
CCn1c(O)c(/C=N/NC(=O)C(C)c2ccc(CC(C)C)cc2)sc1=S (centres undefined),0.419,> 36.9 µM
C[C@@H]1C[C@@H]([C@@H](CC2CC(=O)NC(=O)C2)OC(=O)CC(=O)c2ccccc2)C(=O)[C@@H](C)C1,0.62,–
CCOC(=O)Nc1cc2c(c(N)n1)N=C(c1ccccc1)CO2,0.148,11.9 µM
CC1CC2CCCC(O)=C2C(=O)O1 (centres undefined),–,> 100 µM
CC(C)(/C=C(\C#N)C(=O)N1CCC[C@@H](n2nc(-c3ccc(Oc4ccccc4)cc3F)c3c(N)ncnc32)C1)N1CCN(C2COC2)CC1,4.3,16.6 µM
O=c1oc2ccc(-c3ccc(F)cc3F)cc2c(=O)n1-c1cccc(C(F)(F)F)c1,1.66,22.2 µM
COC(=O)c1ccc2c(c1)C(=O)c1c-2n(CCCN=[N+]=[N-])c(=O)c2cc(OC)c(OC)cc12,> 100,> 100 µM
O=C(Cc1ccc(F)c(Cl)c1)Nc1cc(C2(C(F)(F)F)CC2)nn1CC1CCCCC1,4.64,> 15 µM
NNC(=O)CNc1cccc(Br)c1,–,> 100 µM
NC(N)=NCCCC(=O)O,–,> 100 µM
CCCC(=O)Nc1cn(COC)c(C(=O)N2C[C@@H]3C[C@]34C2=CC(=O)c2[nH]cc(C)c24)n1,1.27,29.5 µM and 10.8 µM
CNCCOC(=O)/C=C1\CC[C@H]2[C@@H]([C@@H](O)C(=O)[C@@H]3[C@]2(C)CC[C@H](O)[C@]3(C)C(=O)OC)[C@H]1C,0.438,2.23 µM
Cc1nnc(Nc2ccc(NC(=O)Nc3ccc(Cl)cc3)cc2)c2ccccc12,3.98,19.5 µM
CC(=O)ON1CCCC(P(=O)(OCCSC(=O)C(C)(C)C)OCCSC(=O)C(C)(C)C)C1=O (centres undefined),0.808,6.27 µM
COC(=O)[C@]12CC[C@@H](C)[C@H](C)[C@@H]1C1=CC[C@@H]3[C@@]4(C)C[C@@H](O)[C@H](O)[C@@](C)(CO)C4=CC[C@@]3(C)[C@]1(C)CC2,22,43.1 µM
COc1ccc(C(=O)Nc2ccc(O)c(=O)cc2)cc1,–,> 100 µM
Cc1nc(N)sc1N=Nc1ccccc1Br,–,64.4 µM
NS(=O)(=O)c1ccc(N=Nc2c(O)c(C(=O)O)cc3ccccc23)cc1,–,> 100 µM
Cc1c(N(C)C)ccc2c(=O)c3cccc(CC(=O)O)c3oc12,–,> 100 µM
CC(NCCC(c1ccccc1)c1ccccc1)c1ccccc1 (centres undefined),2.89,13.5 µM
C/C(N=NC(=S)N1CC2CCC(CC2)C1)=C1\C=CC=CN1O,–,> 100 µM
O=C(Nc1ccc(Br)cc1F)c1cc(Cl)ccc1O,0.388,> 100 µM
NC(N)=N/N=C/c1c(Cl)cccc1Cl,31.2,> 100 µM
S=c1[nH]c(=S)c2cc3ccccc3nc2[nH]1,23,> 100 µM
